For 34 compounds, EC50 results are on record in patent publication US20250313574A1, “SIALIC ACID DERIVATIVES AND METHODS OF USING SAME” (EISAI R&D MANAGEMENT CO., LTD., priority 2022, published 2025).

Usually EC50 stands for the concentration needed to bring the measured effect to its halfway point.

The target of this assay is Recombinant human CD33 protein (Homo sapiens (Human), UniProt P20138). The assay is described as follows: CD33 competitive binding assay for HTS drug screen (fluorescent multivalent sialic acid probe). Here is the method: This is a competitive binding assay that uses recombinant CD33 immobilized to a plate and a fluorescently-labeled multivalent sialic acid analog as a probe. Binding of drug to the site on CD33 to which sialic acid binds is detected by reduced binding of the fluorescent probe. Recombinant human CD33 protein (for example Acro Biosystems cat #CD3-H5257) was added at a concentration of 10 μg/ml in 20 mM acetate buffer (pH5.5) to a black plastic plate (Corning 4510) and allowed to incubate overnight at 4° C. The next day, the wells were washed 3 times with PBS containing 0.02% Tween-20. This was followed by a 30-minute incubation with PBS containing 0.2% Tween-20 and 0.5% BSA to block non-specific binding to the well. This buffer is removed and replaced with 10 μl of the same buffer, which is also used as the assay buffer. The fluorescent multivalent sialic acid probe was prepared as a 4× concentration as follows. A biotinylated sialic acid analog A-375 was mixed with biotin-4-Fluorescein isothiocyanate (biotin-4-FITC) at a 3:1 molar ratio with final concentrations (4× stock) of 60 μM A-375 and 20 μM biotin-4-FITC. After these were mixed, 20 μM of neutravidin was added, which should form complexes consisting of neutravidin, fluorescein and sialic acid with an average complex consisting of 1 neutravidin, 1 FITC and 3 sialic acid analogs. The multimerization of the sialic acid analog is critical to the assay and improves the affinity of the sialic acid analog several orders of magnitude. A test compound, for example A-001, is added at 5 μl to the 10 μl assay buffer already in the well. After a brief incubation, 5 μl of the 4× stock solution of sialic acid complexes was added. The final concentration of the complexes was therefore 5 μM neutravidin, 15 μM A-375 and 5 μM FITC. The plate was incubated at room temperature for 30 mins and then washed with PBS containing 0.2% Tween-20. Binding of the sialic acid complex is very stable, with an off-rate of several days. Bound complex was then detected using a standard plate reader to quantify FITC fluorescence.
Recombinant human CD33 protein, sequence (P20138 18-259): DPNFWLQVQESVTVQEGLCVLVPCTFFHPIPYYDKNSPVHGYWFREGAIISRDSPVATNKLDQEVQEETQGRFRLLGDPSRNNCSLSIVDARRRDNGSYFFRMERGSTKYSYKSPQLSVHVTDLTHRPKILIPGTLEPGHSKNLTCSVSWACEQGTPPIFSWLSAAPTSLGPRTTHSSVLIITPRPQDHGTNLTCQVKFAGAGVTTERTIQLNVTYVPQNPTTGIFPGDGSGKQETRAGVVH
For the compound `CC(=O)N[C@H]1[C@H]([C@H](O)[C@H](O)CNC(=O)c2cc(C)c(O)c(C)c2)O[C@@](CCN2CCOC[C@@]23CCN(C(=O)C(c2ccccc2)C2CCCCC2)C3)(C(=O)O)C[C@@H]1O` (stereo partly shown) [A-089], the EC50 stood at 291 nM.
The same measure for `Cc1cc(C(=O)NCC(O)C[C@@H]2O[C@@](C/C=C/C3CCN(C(=O)OC(C)(C)C)C3)(C(=O)O)CCC2C)cc(C)c1O` (single isomer, unassigned) [A-210]: 21400 nM.
The same measure for `Cc1cc(C(=O)NC[C@H](O)C[C@H]2CC[C@H](C)[C@](CCN3CCOC[C@@]34CCN(C(=O)OC(C)(C)C)C4)(C(=O)O)O2)cc2cc[nH]c12` [A-218]: over 20000 nM.
The same measure for `CC(=O)N[C@H]1[C@H]([C@H](O)[C@H](O)CNC(=O)/C=C/c2cn[nH]c2)O[C@@](CCN2CCOC[C@@]23CCN(C(=O)OC(C)(C)C)C3)(C(=O)O)C[C@@H]1O` [A-176]: 650 nM; for `Cc1cc(C(=O)NC[C@@H](O)C[C@H]2CC[C@@H](C)[C@](CCN3CCOC[C@@]34CCN(C(=O)OC(C)(C)C)C4)(C(=O)O)O2)cc2cc[nH]c12` [A-217]: over 20000 nM; for `CC(=O)N[C@H]1[C@H]([C@H](O)[C@H](O)CNC(=O)c2cc(C)c(O)c(C)c2)O[C@@](CCN2CCOC[C@@]23CCN(C(=O)COC2CCCC2)C3)(C(=O)O)C[C@@H]1O` [A-092]: 2050 nM.
Regarding `CC(=O)N[C@H]1[C@H]([C@H](O)[C@H](O)CNC(=O)c2cc(C)c(O)c(C)c2)O[C@@](CCN2CCOC[C@@]23CCN(C(=O)NC2(c4ccccc4)CC2)C3)(C(=O)O)C[C@@H]1O` [A-054], the EC50 stood at 147 nM.
`CC(=O)N[C@H]1[C@H]([C@H](O)[C@H](O)CNC(=O)c2cc(C)c(O)c(C)c2)O[C@@](CCN2CCOC[C@@]23CCN(C(=O)COC(C)C)C3)(C(=O)O)C[C@@H]1O` [A-084]: the EC50 stood at 1560 nM.
The same measure for `CC(=O)N[C@H]1[C@H]([C@H](O)[C@H](O)CNC(=O)c2cc(C)c(O)c(C)c2)O[C@@](CCN2CCOC[C@@]23CCN(C(=O)CC(C)(C)C)C3)(C(=O)O)C[C@@H]1O` [A-072]: 230 nM.
The same measure for `CC(=O)N[C@H]1[C@H]([C@H](O)[C@H](O)CNC(=O)c2cc(C)c(O)c(C)c2)O[C@@](CCN2CCOC[C@@]23CCN(c2cc(N(C)C)ccn2)C3)(C(=O)O)C[C@@H]1O` [A-041]: 580 nM; for `CC(=O)N[C@H]1[C@H]([C@H](O)[C@H](O)CNC(=O)c2cc(C)c(O)c(C)c2)O[C@@](CCN2CCOCC23CCN(C(=O)OC(C)(C)C)CC3)(C(=O)O)C[C@@H]1O` [A-007]: 811 nM.
The same measure for `CC(=O)N[C@H]1[C@H]([C@H](O)[C@H](O)CNC(=O)c2cc(C)c(O)c(C)c2)O[C@@](CCN2CCOC[C@@]23CCN(C(=O)NC(C)(C)c2ccccc2)C3)(C(=O)O)C[C@@H]1O` [A-055]: 247 nM.
Consider `CC(=O)N[C@H]1[C@H]([C@H](O)[C@H](O)CNC(=O)c2cc(C)c(O)c(C)c2)O[C@@](CN2CCCC3(CCN(C(=O)OC(C)(C)C)C3)C2)(C(=O)O)C[C@@H]1O` (stereo partly shown) [A-193], for which the concentration for a half-maximal effect (EC50) was found to be 90 nM.
As for `CC(=O)N[C@H]1[C@H]([C@H](O)[C@H](O)CNC(=O)c2cc(C)c(O)c(C)c2)O[C@@](CCN2CCOC[C@@]23CCN(C(=O)c2c(C)cccc2C)C3)(C(=O)O)C[C@@H]1O` [A-086], the EC50 was over 5000 nM.
On to `CC(=O)N[C@H]1[C@H]([C@H](O)[C@H](O)CNC(=O)c2cc(C)c(O)c(C)c2)O[C@@](CCN2CCN(C)C[C@]23CCN(C(=O)NC(C)(C)C)C3)(C(=O)O)C[C@@H]1O` [A-106], for which the half-maximal effective concentration (EC50) stood at 1950 nM.
The same measure for `C=C(OC(C)(C)C)N1CC2(CCN2CC[C@]2(C(=O)O)C[C@H](O)[C@@H](NC(C)=O)[C@H]([C@H](O)[C@H](O)CNC(=O)c3cc(C)c(O)c(C)c3)O2)C1` [A-021]: 887 nM.
The same measure for `CC(=O)N[C@H]1[C@H]([C@H](O)[C@H](O)CNC(=O)c2cc(C)c(O)c(C)c2)O[C@@](CCN2CCOC[C@@]23CCN(C(=O)COCC(F)(F)F)C3)(C(=O)O)C[C@@H]1O` [A-088]: 1950 nM; for `CC(=O)N[C@H]1[C@H]([C@H](O)[C@H](O)CNC(=O)c2cc(C)c(O)c(C)c2)O[C@@](CCN2CCOC[C@@]23CCN(C(=O)C2CCC(F)(F)CC2)C3)(C(=O)O)C[C@@H]1O` [A-075]: 99 nM; for `CC(=O)N[C@H]1[C@H]([C@H](O)[C@H](O)CNC(=O)c2cc(C)c(O)c(C)c2)O[C@@](CCN2CCCCC23CCN(C(=O)OC(C)(C)C)C3)(C(=O)O)C[C@@H]1O` (stereo partly shown) [A-022]: 2930 nM.
Consider `Cc1cc(C(=O)NCC(O)C[C@@H]2O[C@@](CCN3CCOC[C@@]34CCN(C(=O)OC(C)(C)C)C4)(C(=O)O)CCC2C)cc(C)c1O` (single isomer, unassigned) [A-213], for which the EC50 came to 17900 nM.
The same measure for `COC(C)C(=O)N1CC[C@@]2(COCCN2CC[C@]2(C(=O)O)C[C@H](O)[C@@H](NC(C)=O)[C@H]([C@H](O)[C@H](O)CNC(=O)c3cc(C)c(O)c(C)c3)O2)C1` (stereo partly shown) [A-082]: over 5000 nM; for `COC(C)(C)C(=O)N1CC[C@@]2(COCCN2CC[C@]2(C(=O)O)C[C@H](O)[C@@H](NC(C)=O)[C@H]([C@H](O)[C@H](O)CNC(=O)c3cc(C)c(O)c(C)c3)O2)C1` [A-085]: 1280 nM.
The same measure for `CC(=O)N[C@H]1[C@H]([C@H](O)[C@H](O)CNC(=O)c2cc(C)c(O)c(C)c2)O[C@@](CCN2CCOC[C@@]23CCN(c2cc(C)ccn2)C3)(C(=O)O)C[C@@H]1O` [A-038]: 53 nM; for `CC(=O)N[C@H]1[C@H]([C@H](O)[C@H](O)CNC(=O)c2ccc3sc(C)nc3c2)O[C@@](CCN2CCOC[C@@]23CCN(C(=O)OC(C)(C)C)C3)(C(=O)O)C[C@@H]1O` [A-131]: 24 nM; for `Cc1cc(C(=O)NCC(O)C[C@@H]2O[C@@](C/C=C/C3CCN(C(=O)OC(C)(C)C)C3)(C(=O)O)CCC2C)cc(C)c1O` (single isomer, unassigned) [A-209]: 44500 nM.
Take `CC(=O)N[C@H]1[C@H]([C@H](O)[C@H](O)CNC(=O)c2cc(C)c(O)c(C)c2)O[C@@](CCN2CCOC[C@@]23CCN(Cc2cccc(C)c2)C3)(C(=O)O)C[C@@H]1O` [A-104]: the half-maximal effective concentration (EC50) was over 10000 nM.
The same measure for `CC(=O)N[C@H]1[C@H]([C@H](O)[C@H](O)CNC(=O)c2cc(C)c(O)c(C)c2)O[C@@](CC2OC(C)(C)O[C@H]2c2ccc3c(c2)N(C(=O)OC(C)(C)C)CC3)(C(=O)O)C[C@@H]1O` (stereo partly shown) [A-308]: 2940 nM.
The same measure for `COC[C@@]1(N(C)CC[C@]2(C(=O)O)C[C@H](O)[C@@H](NC(C)=O)[C@H]([C@H](O)[C@H](O)CNC(=O)c3cc(C)c(O)c(C)c3)O2)CCN(C(=O)OC(C)(C)C)C1` [A-031]: 70 nM.
The same measure for `CC(=O)N[C@H]1[C@H]([C@H](O)[C@H](O)CNC(=O)c2cc(C)c(O)c(C)c2)O[C@@](CCN2CCOC[C@@]23CCN(C(=O)C2CCCCC2)C3)(C(=O)O)C[C@@H]1O` [A-067]: 63 nM; for `CC(=O)N[C@H]1[C@H]([C@H](O)[C@H](O)CNC(=O)c2cc(C)c(O)c(C)c2)O[C@@](C/C=C/C2(F)CCN(C(=O)OC(C)(C)C)C2)(C(=O)O)C[C@@H]1O` (stereo partly shown) [A-198]: 148 nM; for `Cc1cc(C(=O)NCC(O)C[C@@H]2O[C@@](CCN3CCOC[C@@]34CCN(C(=O)OC(C)(C)C)C4)(C(=O)O)CCC2C)cc(C)c1O` (single isomer, unassigned) [A-214]: 9800 nM.
Regarding `CC(=O)N[C@H]1[C@H]([C@H](O)[C@H](O)CNC(=O)c2cc(C)c(O)c(C)c2)O[C@@](CCN2CCOC[C@@]23CCN(C(=O)c2ccc4[nH]cnc4c2)C3)(C(=O)O)C[C@@H]1O` [A-094], the half-maximal effective concentration (EC50) turned out to be 2330 nM.
The same measure for `Cc1cc(C(=O)NCC(O)C[C@@H]2O[C@@](C/C=C/C3CCN(C(=O)OC(C)(C)C)C3)(C(=O)O)CCC2C)cc2cc[nH]c12` (single isomer, unassigned) [A-212]: 17400 nM.
The same measure for `CC(=O)N[C@H]1[C@H]([C@H](O)[C@H](O)CNC(=O)c2cc(C)c(O)c(C)c2)O[C@@](CCN2CCOC[C@@]23CCN(C(=O)COC(C)(C)C)C3)(C(=O)O)C[C@@H]1O` [A-090]: 3120 nM.
